By pIC50 is commonly meant −log10 of the IC50, conventionally taken in molar units.

pIC50: −log10 of the molar value.

In this test the target is T1, PI3Kδ (recombinant GST-tagged PIK3CD co-expressed with PIK3R1, p85α) (Homo sapiens, UniProt O00329).
T1 construct: The protein is full length and co-expressed with untagged PIK3R1; GST; purchased Invitrogen PV5274
T1 sequence (O00329 whole entry): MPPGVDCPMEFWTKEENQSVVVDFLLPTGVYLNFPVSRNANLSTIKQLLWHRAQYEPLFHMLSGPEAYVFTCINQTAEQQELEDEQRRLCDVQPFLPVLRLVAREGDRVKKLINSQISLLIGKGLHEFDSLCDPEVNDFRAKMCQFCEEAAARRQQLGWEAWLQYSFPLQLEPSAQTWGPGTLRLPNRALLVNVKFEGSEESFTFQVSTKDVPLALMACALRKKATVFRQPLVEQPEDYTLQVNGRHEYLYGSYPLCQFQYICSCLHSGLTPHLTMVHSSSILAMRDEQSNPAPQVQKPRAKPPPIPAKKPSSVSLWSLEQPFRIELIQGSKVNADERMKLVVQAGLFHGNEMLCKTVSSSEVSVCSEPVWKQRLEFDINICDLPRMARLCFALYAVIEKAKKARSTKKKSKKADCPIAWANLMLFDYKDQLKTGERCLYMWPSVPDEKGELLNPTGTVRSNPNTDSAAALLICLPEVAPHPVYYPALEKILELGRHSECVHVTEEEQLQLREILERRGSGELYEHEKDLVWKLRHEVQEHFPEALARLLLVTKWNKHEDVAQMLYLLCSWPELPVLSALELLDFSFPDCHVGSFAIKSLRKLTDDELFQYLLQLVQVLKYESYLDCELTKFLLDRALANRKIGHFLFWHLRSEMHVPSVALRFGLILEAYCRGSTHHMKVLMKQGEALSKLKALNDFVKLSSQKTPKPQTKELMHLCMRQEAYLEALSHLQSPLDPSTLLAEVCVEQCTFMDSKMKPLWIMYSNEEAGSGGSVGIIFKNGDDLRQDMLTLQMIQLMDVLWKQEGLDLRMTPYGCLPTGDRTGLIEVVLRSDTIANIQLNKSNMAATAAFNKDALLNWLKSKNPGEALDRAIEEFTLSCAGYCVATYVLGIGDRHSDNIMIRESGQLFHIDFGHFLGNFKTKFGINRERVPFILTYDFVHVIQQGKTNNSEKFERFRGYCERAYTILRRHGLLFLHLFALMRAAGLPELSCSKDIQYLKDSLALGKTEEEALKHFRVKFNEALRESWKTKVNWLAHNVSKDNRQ
T1 sequence (P27986 whole entry partner): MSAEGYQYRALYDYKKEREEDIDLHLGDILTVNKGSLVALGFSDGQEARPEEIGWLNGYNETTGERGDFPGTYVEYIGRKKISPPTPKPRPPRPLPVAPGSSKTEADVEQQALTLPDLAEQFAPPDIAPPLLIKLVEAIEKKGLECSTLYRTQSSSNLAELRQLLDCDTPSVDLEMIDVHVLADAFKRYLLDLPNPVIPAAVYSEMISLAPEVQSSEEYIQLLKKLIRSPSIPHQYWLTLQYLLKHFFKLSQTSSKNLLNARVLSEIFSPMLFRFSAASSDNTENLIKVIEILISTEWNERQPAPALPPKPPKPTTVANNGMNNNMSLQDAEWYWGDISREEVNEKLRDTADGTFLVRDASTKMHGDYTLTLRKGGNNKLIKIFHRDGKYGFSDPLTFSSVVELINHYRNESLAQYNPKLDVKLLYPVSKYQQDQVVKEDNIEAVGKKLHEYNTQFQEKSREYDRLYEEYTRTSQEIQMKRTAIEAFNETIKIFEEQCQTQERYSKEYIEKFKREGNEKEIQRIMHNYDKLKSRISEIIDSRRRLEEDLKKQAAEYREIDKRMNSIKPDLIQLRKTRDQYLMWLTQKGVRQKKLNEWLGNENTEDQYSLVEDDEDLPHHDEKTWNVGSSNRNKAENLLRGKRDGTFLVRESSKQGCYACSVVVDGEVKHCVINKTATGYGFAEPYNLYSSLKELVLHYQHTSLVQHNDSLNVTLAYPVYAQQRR
Nature of the test: PI3Kδ inhibition, modified PIK3CD Adapta TR-FRET kinase assay. It counts as biochemical. Particulars: 2 μM ATP, 50 μM PIP2, 1 hour at room temperature, pIC50 = -log(IC50 in M). The method, then: The activity of compounds as PI3Kδ inhibitors may be determined by a variety of methods, including in vitro and in vivo methods. The following in vitro assay measures a test compound's ability to inhibit PI3Kδ-mediated phosphorylation of PIP2 and ATP.
Recombinant GST-tagged PIK3CD is purchased from Invitrogen (Part Number: PV5274). The protein is full length and co-expressed with untagged PIK3R1, phosphoinositide-3-kinase regulatory subunit 1 (p85α). The protein is stored at −20° C. in 50 mM TRIS (pH 7.5), 150 mM NaCl, 0.5 mM EDTA, 0.02% Triton® X-100, 2 mM DTT, and 50% glycerol.
A modified PIK3CD Adapta® assay (Invitrogen, Carlsbad, Calif.) is used to measure PI3Kδ inhibition of the example compounds. The assay has two phases. In the first phase, kinase reaction components, which include the enzyme (PIK3CD), substrates (PIP2, ATP), test compound (inhibitor), and assay buffer are added to each well, and the reaction is allowed to incubate for a pre-determined period of time. After reaction, a detection solution composed of a Eu (europium)-labeled anti-ADP antibody, Alexa Fluor® 647-labeled ADP tracer, and EDTA (to stop the kinase reaction) is added to each assay well. In this second phase, ADP formed by the kinase reaction displaces the Alexa Fluor® 647-labeled ADP tracer from the antibody, resulting in a decrease in time-resolved fluorescence resonance energy transfer (TR-FRET) signal. In the presence of the inhibitor, the amount of ADP formed by the kinase reaction is reduced, and the resulting intact antibody-tracer interaction maintains a high TR-FRET signal.
The assay uses black Greiner® 384-well plates (784076). The reaction buffer contains 50 mM Hepes (pH 7.5), 3 mM MgCl2, 1 mM EGTA, 100 mM NaCl, 0.03% CHAPS; 2 mM DTT is added fresh prior to each experiment. Enzyme (4 μL, estimated 1.5 nM in buffer) is first added to the wells of the plate. Next, test compounds (2 μL) from a source plate (5% dilution plate) are introduced into the wells. The final DMSO concentration in each assay well is 1%. The dilution plate contains 5% DMSO in the bottom half of columns 23 and 24, which serve as negative (non-inhibited) controls; the top half contains a known inhibitor concentration (positive control) that gives >98% inhibition of the kinase reaction. Other wells contain test compounds serially diluted across the plate 11 times for a total of 12 data points. The kinase reactions are carried out at room temperature and are initiated by the addition of 4 μL of solution containing 2 μM ATP and 50 μM PIP2. Each reaction is stopped after 1 hour±10 minutes via addition of 10 μL stop solution, which contains a final assay concentration of 3 nM Alexa Fluor® 647-labeled ADP tracer, 2 nM Eu-anti-ADP Antibody, and 10 mM EDTA. After allowing the solutions to equilibrate for 30±10 minutes, a PHERAstar plate reader is used to excite the Eu donor (at 337 nm) and to detect emission from the Alexa Fluor® 647 at 665 nm. This emission signal is referenced or “ratioed” to the emission from Eu at 620 nm. The emission ratio (665 nm/620 nm) from each well is collected and converted to percent conversion using a standard curve for the assay conditions: % conversion=B*(C+A−emission ratio)/(emission ratio−C), where “A” and “C” are the maximum and minimum values of the emission ratio obtained from the standard curve of emission ratio vs. % conversion (ATP-ADP); “B” is the emission ratio corresponding to the % conversion at the EC50 value for the ADP Tracer—Eu anti-ADP antibody complex. The percent inhibition for a given inhibitor concentration is computed from % conversion for the reaction and for the positive and negative controls. Corresponding IC50 values are calculated by non-linear curve fitting of the compound concentrations and values of percent inhibition to the standard IC50 equation and are reported as pIC50, i.e., −log(IC50), where IC50 is molar concentration at 50% inhibition.
A general note: TR-FRET usually uses a lanthanide donor and a delayed reading to cut background.
As for `C[C@H](Nc1nc(N)nc(N)c1C#N)c1nc2ccn(C)c2cc1N1CC2(COC2)C1` [Example 47, (S)-2,4-Diamino-6-((1-(1-methyl-6-(2-oxa-6-azaspiro[3.3]heptan-6-yl)-1H-pyrrolo[3,2-b]pyridin-5-yl)ethyl)amino)pyrimidine-5-carbonitrile], the negative-log IC50 (pIC50) is 7.80.
Turning to `C[C@H](Nc1nc(N)ncc1F)c1nc2ccn(C)c2cc1-c1ccnn1C` [Example 7, (S)-5-Fluoro-N^4-(1-(1-methyl-6-(1-methyl-1H-pyrazol-5-yl)-1H-pyrrolo[3,2-b]pyridin-5-yl)ethyl)pyrimidine-2,4-diamine], the negative-log IC50 (pIC50) was 4.10.
As to `CC(Nc1nc(N)nc(N)c1C#N)c1nc2ccn(C)c2cc1N1CC(O)C1` (stereo not shown) [Example 39, 2,4-Diamino-6-((1-(6-(3-hydroxyazetidin-1-yl)-1-methyl-1H-pyrrolo[3,2-b]pyridin-5-yl)ethyl)amino)pyrimidine-5-carbonitrile], the pIC50 was above 8.80.
Take `C[C@H](Nc1nc(N)nc2[nH]cnc12)c1nc2ccn(C)c2cc1N1CCOCC1` [Example 27, (S)—N^6-(1-(1-Methyl-6-morpholino-1H-pyrrolo[3,2-b]pyridin-5-yl)ethyl)-9H-purine-2,6-diamine]: the pIC50 is 8.00.
As to `Cc1n[nH]c(C)c1-c1cc2c(ccn2C)nc1[C@H](C)Nc1nc(N)nc(N)c1C#N` [Example 14, 2,4-Diamino-6-(((1S)-1-(6-(3,5-dimethyl-1H-pyrazol-4-yl)-1-methyl-1H-pyrrolo[3,2-b]pyridin-5-yl)ethyl)amino)pyrimidine-5-carbonitrile], the pIC50 was 8.10.
Take `Cc1nc(N)nc(N[C@@H](C)c2nc3ccn(C)c3cc2-c2ccnc(O)c2)c1C#N` [Example 23, (S)-2-Amino-4-((1-(6-(2-hydroxypyridin-4-yl)-1-methyl-1H-pyrrolo[3,2-b]pyridin-5-yl)ethyl)amino)-6-methylpyrimidine-5-carbonitrile]: the pIC50 is above 9.00.
For the compound `Cc1nc(N)nc(N[C@@H](C)c2nc3ccn(C)c3cc2N2CCOCC2)c1C#N` [Example 9, (S)-2-Amino-4-methyl-6-((1-(1-methyl-6-morpholino-1H-pyrrolo[3,2-b]pyridin-5-yl)ethyl)amino)pyrimidine-5-carbonitrile], the negative-log IC50 (pIC50) is 9.10.
On to `C[C@H](Nc1nc(N)nc(N)c1C#N)c1nc2ccn(C)c2cc1C1CCOCC1` [Example 26, (S)-2,4-Diamino-6-((1-(1-methyl-6-(tetrahydro-2H-pyran-4-yl)-1H-pyrrolo[3,2-b]pyridin-5-yl)ethyl)amino)pyrimidine-5-carbonitrile], for which the negative-log IC50 (pIC50) was above 8.70.
Under `C[C@H](Nc1nc(N)nc(N)c1Cl)c1nc2ccn(C)c2cc1-c1ccnn1C` [Example 33, (S)-5-Chloro-N^4-(1-(1-methyl-6-(1-methyl-1H-pyrazol-5-yl)-1H-pyrrolo[3,2-b]pyridin-5-yl)ethyl)pyrimidine-2,4,6-triamine] stands 7.50; under `Cc1nc(N)nc(N[C@@H](C)c2nc3ccn(C)c3cc2-c2c(C)noc2C)c1C#N` [Example 31, 2-Amino-4-(((1S)-1-(6-(3,5-dimethylisoxazol-4-yl)-1-methyl-1H-pyrrolo[3,2-b]pyridin-5-yl)ethyl)amino)-6-methylpyrimidine-5-carbonitrile], 8.40; under `C[C@@H](Nc1nc(N)nc(N)c1C#N)c1nc2ccn(C)c2cc1N1CC(F)(F)C1` [Example 43, (R)-2,4-Diamino-6-((1-(6-(3,3-difluoroazetidin-1-yl)-1-methyl-1H-pyrrolo[3,2-b]pyridin-5-yl)ethyl)amino)pyrimidine-5-carbonitrile], 6.00.
Regarding `C[C@H](Nc1nc(N)nc(N)c1C#N)c1nc2ccn(C)c2cc1N1CCC(C)(O)CC1` [Example 21, (S)-2,4-Diamino-6-((1-(6-(4-hydroxy-4-methylpiperidin-1-yl)-1-methyl-1H-pyrrolo[3,2-b]pyridin-5-yl)ethyl)amino)pyrimidine-5-carbonitrile], the pIC50 was 8.30.
On to `C[C@H](Nc1nc(N)nc(N)c1C#N)c1nc2ccn(C)c2cc1-c1ccn[nH]1` [Example 13, (S)-2,4-Diamino-6-((1-(1-methyl-6-(1H-pyrazol-5-yl)-1H-pyrrolo[3,2-b]pyridin-5-yl)ethyl)amino)pyrimidine-5-carbonitrile], for which the pIC50 was 8.70.
Take `Cc1nc(N)nc(N[C@@H](C)c2nc3ccn(C)c3cc2C2CCOCC2)c1C#N` [Example 25, (S)-2-Amino-4-methyl-6-((1-(1-methyl-6-(tetrahydro-2H-pyran-4-yl)-1H-pyrrolo[3,2-b]pyridin-5-yl)ethyl)amino)pyrimidine-5-carbonitrile]: the negative logarithm of the IC50 (pIC50) was above 8.90.
For `C[C@H](Nc1nc(N)nc(N)c1C#N)c1nc2ccn(C)c2cc1N1CC(F)(F)C1` [Example 44, (S)-2,4-Diamino-6-((1-(6-(3,3-difluoroazetidin-1-yl)-1-methyl-1H-pyrrolo[3,2-b]pyridin-5-yl)ethyl)amino)pyrimidine-5-carbonitrile] the value was 8.70.
For `C[C@H](Nc1nc(N)nc2[nH]cnc12)c1nc2ccn(C)c2cc1-c1ccnn1C` [Example 16, (S)—N^6-(1-(1-Methyl-6-(1-methyl-1H-pyrazol-5-yl)-1H-pyrrolo[3,2-b]pyridin-5-yl)ethyl)-9H-purine-2,6-diamine] the value was 8.10; for `C[C@H](Nc1nc(N)nc2[nH]ncc12)c1nc2ccn(C)c2cc1-c1ccnn1C` [Example 18, (S)—N^4-(1-(1-Methyl-6-(1-methyl-1H-pyrazol-5-yl)-1H-pyrrolo[3,2-b]pyridin-5-yl)ethyl)-1H-pyrazolo[3,4-d]pyrimidine-4,6-diamine], 6.30.
`Cc1n[nH]cc1-c1cc2c(ccn2C)nc1[C@H](C)Nc1nc(N)nc(C)c1C#N` [Example 19, (S)-2-Amino-4-methyl-6-((1-(1-methyl-6-(3-methyl-1H-pyrazol-4-yl)-1H-pyrrolo[3,2-b]pyridin-5-yl)ethyl)amino)pyrimidine-5-carbonitrile]: the negative logarithm of the IC50 (pIC50) was 8.30.
Under `C[C@@H](Nc1nc(N)nc(N)c1C#N)c1nc2ccn(C)c2cc1N1CCC(C)(O)CC1` [Example 22, (R)-2,4-Diamino-6-((1-(6-(4-hydroxy-4-methylpiperidin-1-yl)-1-methyl-1H-pyrrolo[3,2-b]pyridin-5-yl)ethyl)amino)pyrimidine-5-carbonitrile] stands 5.70.
For `C[C@H](Nc1nc(N)ncc1Cl)c1nc2ccn(C)c2cc1-c1ccnn1C` [Example 1, (S)-5-Chloro-N^4-(1-(1-methyl-6-(1-methyl-1H-pyrazol-5-yl)-1H-pyrrolo[3,2-b]pyridin-5-yl)ethyl)pyrimidine-2,4-diamine] the value was 6.90; for `COC1CN(c2cc3c(ccn3C)nc2[C@H](C)Nc2nc(N)nc(N)c2C#N)C1` [Example 41, (S)-2,4-Diamino-6-((1-(6-(3-methoxyazetidin-1-yl)-1-methyl-1H-pyrrolo[3,2-b]pyridin-5-yl)ethyl)amino)pyrimidine-5-carbonitrile], above 8.80; for `C[C@H](Nc1nc(N)nc2[nH]cnc12)c1nc2ccn(C)c2cc1-c1ccnn1C1CC1` [Example 36, (S)-N^6-(1-(6-(1-Cyclopropyl-1H-pyrazol-5-yl)-1-methyl-1H-pyrrolo[3,2-b]pyridin-5-yl)ethyl)-9H-purine-2,6-diamine], 8.00.

The values are drawn from patent US8835420B2, “Azaindole derivatives” (Takeda Pharmaceutical Company Limited, priority 2012, dated 2014).
